Where a name gives a salt, the structure may show the parent alone.
Key:
[1] = Water solubility of isolated salts of MJ 12175 (redissolution); format: physicochemical; details: for H2O Solubility isolated salt: room temperature (about 25° C.)
Text: (§1) Many conventional pharmaceutically acceptable amine salts of MJ 12175 are not well suited for the present use due to limited solubility, lack of stability, pH ranges differing sufficiently from physiological pH (~7.4) to the extent that irritation of tissue becomes a problem.
(§2) The amine salts of MJ 12175 shown in Table 1 were first prepared in situ by adding the amine to a suspension of MJ 12175 in a quantity of water sufficient to give a 4% aqueous solution of the resulting salt. When a precipitate formed on amine addition indicating relative insolubility, pH was not measured as in the cases of salts 4 through 8 in Table 1. Although solutions were obtained with the other salts formed in situ supersaturation of these solutions appears likely since the four salts (Nos. 2, 3, 9, 11) which were isolated were less than 4% soluble on redissolution. […] The three crystalline salts were the only examples where solid precipitated from the in situ solutions on standing. Of the three crystalline isolated amine salts of MJ 12175, the glucamine salt best meets the water solubility and pH criteria.

pH of salts of MJ 12175 = format: physicochemical; details: room temperature (about 25° C.)
Text: as §1, §2

[2] = Stability of aqueous solutions on extended storage
[3] = Water solubility of salts of MJ 12175 formed in situ (4% aqueous solution); format: physicochemical; details: room temperature (about 25° C.); precipitate formed on amine addition, indicating relative insolubility
Text: as §1, §2

[4] = Physical state of isolated salts; format: physicochemical
Text: as §2

[5] = cited from earlier work

In the case of Cc1c(CC(C)C)sc2nc(C(=O)O)[nH]c(=O)c12 [MJ 12175, 3,4-Dihydro-5-methyl-6-(2-methylpropyl)-4-oxothieno[2,3-d]pyrimidine-2-carboxylic Acid], the “H2O Solubility isolated salt” value ([1]; listed as 1) is reported as 8900 µg/mL and the pH (pH of salts of MJ 12175; listed as 1) is reported as 11.22.
With Cc1c(CC(C)C)sc2nc(C(=O)O)[nH]c(=O)c12 [Salt No. 2, 3,4-Dihydro-5-methyl-6-(2-methylpropyl)-4-oxothieno[2,3-d]pyrimidine-2-carboxylic Acid N-methyl-D-glucamine Salt] the “H2O Solubility isolated salt” value [1] was 12000 µg/mL, the solubility ([1]; water, isolated salts, redissolution) was less than 40000 µg/mL and the pH (pH of salts of MJ 12175) was 6.4. For the same compound, the “stability of aqueous solutions” value [2] was “demonstrated the stability of its aqueous solutions on extended storage”.
With Cc1c(CC(C)C)sc2nc(C(=O)O)[nH]c(=O)c12 [compound 3] the “solubility of isolated salts on redissolution” value (“solubility of isolated salts” for short) ([1]; isolated salts, redissolution) was “less than 4%”, the “H2O Solubility isolated salt” value [1] was 5000 µg/mL and the pH (pH of salts of MJ 12175) was 4.7.
With Cc1c(CC(C)C)sc2nc(C(=O)O)[nH]c(=O)c12 [compound 4] the “H2O Solubility in situ (ppt)” value [3] was “ppt”.
For Cc1c(CC(C)C)sc2nc(C(=O)O)[nH]c(=O)c12 [compound 9], the “solubility of isolated salts” value ([1]; isolated salts, redissolution) was “less than 4%”, the “H2O Solubility isolated salt” value [1] was less than 1000 µg/mL and the pH (pH of salts of MJ 12175) was 6.81.
With Cc1c(CC(C)C)sc2nc(C(=O)O)[nH]c(=O)c12 [compound 10] the pH (pH of salts of MJ 12175) was 4.55.
For Cc1c(CC(C)C)sc2nc(C(=O)O)[nH]c(=O)c12 [compound 11], the “solubility of isolated salts” value ([1]; isolated salts, redissolution) was “less than 4%”, the pH (pH of salts of MJ 12175) was 6.42 and the “physical state of isolated salt” value [4] was “remained a non-crystallinetar during attempted purification”.
Compound Cc1c(CC(C)C)sc2nc(C(=O)O)[nH]c(=O)c12 [compound 12] has a pH (pH of salts of MJ 12175) of 6.29.
Work on Cc1c(CC(C)C)sc2nc(C(=O)O)[nH]c(=O)c12 [compound 13] yielded a pH (pH of salts of MJ 12175) of 8.08.
Compound Cc1c(CC(C)C)sc2nc(C(=O)O)[nH]c(=O)c12 [compound 14] has a pH (pH of salts of MJ 12175) of 9.59.
In the case of Cc1c(CC(C)C)sc2nc(C(=O)O)[nH]c(=O)c12 [potassium salt], the pH of solutions ([5]; not desirable for nasal instillation) is listed as “alkaline pH” and the water solubility ([5]; relative to MJ 12175) is listed as “improved water solubility”.

Source: patent US4377583A, “N-Methyl-D-glucamine salt of with 3,4-dihydro-5-methyl-6-(2-methylpropyl)-4-oxothieno[2,3-d]pyrimidine-2-c arboxylic acid” (Mead Johnson & Company, priority 1981, dated 1983)
